Common to all, as to type: biochemical
The target in experiment [1] is T1, recombinant human MAO-A (monoamine oxidase-A) (Homo sapiens, UniProt P21397).
T1 construct: purchased Sigma-Aldrich
T1 sequence (P21397 1-527): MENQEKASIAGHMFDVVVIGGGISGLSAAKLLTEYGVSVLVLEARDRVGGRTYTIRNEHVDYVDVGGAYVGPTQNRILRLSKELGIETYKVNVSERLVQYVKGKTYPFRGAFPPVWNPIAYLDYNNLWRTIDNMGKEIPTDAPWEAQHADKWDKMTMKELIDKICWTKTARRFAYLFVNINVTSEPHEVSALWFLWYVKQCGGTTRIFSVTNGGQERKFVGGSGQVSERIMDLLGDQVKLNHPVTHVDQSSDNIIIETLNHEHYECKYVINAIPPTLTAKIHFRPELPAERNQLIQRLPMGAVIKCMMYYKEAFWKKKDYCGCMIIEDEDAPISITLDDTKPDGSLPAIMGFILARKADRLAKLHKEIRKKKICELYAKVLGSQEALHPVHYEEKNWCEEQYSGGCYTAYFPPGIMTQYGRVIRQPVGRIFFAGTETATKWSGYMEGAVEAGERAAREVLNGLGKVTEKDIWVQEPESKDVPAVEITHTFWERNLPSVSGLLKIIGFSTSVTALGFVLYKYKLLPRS
In words: Activity evaluation on recombinant human MAO-A (Amplex Red/HRP-coupled assay, 0.5 mM tyramine substrate). The following applies: read-out: Inhibitory Activity (IC50, nM) MAO-A. In short, it runs like this:
(§1)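 8-pt 1:3 dilution series, final DMSO <1%; 30 min 37 °C preincubation w/ enzyme, 50 mM Na phosphate pH 7.4; + 200 uM Amplex Red, 1 U/mL HRP, substrate (MAO-A tyramine 0.5 mM; MAO-B benzylamine 1 mM; DAO putrescine 1 mM); fluor. rate 544/590 nm, 1-2 h; 4-param IC50.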

Experiment [2] deals with T2, recombinant human MAO-B (monoamine oxidase-B) (Homo sapiens, UniProt P27338).
T2 construct: purchased Sigma-Aldrich
T2 sequence (P27338 1-520): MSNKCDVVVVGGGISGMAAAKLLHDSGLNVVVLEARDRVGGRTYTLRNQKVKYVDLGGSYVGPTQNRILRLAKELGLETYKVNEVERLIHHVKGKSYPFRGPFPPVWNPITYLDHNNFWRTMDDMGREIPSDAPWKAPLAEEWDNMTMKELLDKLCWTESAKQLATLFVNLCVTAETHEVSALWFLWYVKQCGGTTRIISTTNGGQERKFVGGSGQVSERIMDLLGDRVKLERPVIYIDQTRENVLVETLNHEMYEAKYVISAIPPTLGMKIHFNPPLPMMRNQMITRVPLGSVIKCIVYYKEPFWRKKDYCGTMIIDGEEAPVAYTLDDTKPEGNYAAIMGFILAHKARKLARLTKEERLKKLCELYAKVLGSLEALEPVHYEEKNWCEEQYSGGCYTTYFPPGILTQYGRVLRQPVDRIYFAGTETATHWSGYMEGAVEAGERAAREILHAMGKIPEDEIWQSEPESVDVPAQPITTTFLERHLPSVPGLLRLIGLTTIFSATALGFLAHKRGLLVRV
Nature of the experiment: Activity evaluation on recombinant human MAO-B (Amplex Red/HRP-coupled assay, 1 mM benzylamine substrate). The note with it: read-out: Inhibitory Activity (IC50, nM) MAO-B. A digest of the protocol: as §1

The target of experiment [3] is T3, recombinant human DAO (diamine oxidase) (Homo sapiens, UniProt P19801).
T3 construct: purchased R&D systems
T3 sequence (P19801 20-751): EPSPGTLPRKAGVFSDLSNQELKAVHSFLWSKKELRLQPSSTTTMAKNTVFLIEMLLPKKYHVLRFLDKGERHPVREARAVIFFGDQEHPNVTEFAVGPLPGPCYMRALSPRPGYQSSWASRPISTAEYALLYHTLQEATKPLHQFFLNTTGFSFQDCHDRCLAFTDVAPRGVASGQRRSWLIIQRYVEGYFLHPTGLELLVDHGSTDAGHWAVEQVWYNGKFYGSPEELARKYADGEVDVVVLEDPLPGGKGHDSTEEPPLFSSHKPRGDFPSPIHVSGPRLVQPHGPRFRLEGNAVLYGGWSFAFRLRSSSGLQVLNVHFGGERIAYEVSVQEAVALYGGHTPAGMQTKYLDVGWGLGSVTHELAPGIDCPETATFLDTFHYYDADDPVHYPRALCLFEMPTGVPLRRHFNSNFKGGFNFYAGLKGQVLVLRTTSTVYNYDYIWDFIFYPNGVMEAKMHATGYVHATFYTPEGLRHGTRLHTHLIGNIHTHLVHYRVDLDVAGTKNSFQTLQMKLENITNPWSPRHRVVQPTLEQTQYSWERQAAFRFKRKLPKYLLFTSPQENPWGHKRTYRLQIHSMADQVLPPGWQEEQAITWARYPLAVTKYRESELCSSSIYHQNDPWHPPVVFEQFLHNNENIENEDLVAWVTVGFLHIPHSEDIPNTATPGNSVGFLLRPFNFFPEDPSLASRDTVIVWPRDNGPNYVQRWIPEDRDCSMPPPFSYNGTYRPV
In words: Activity evaluation on recombinant human DAO (Amplex Red/HRP-coupled assay, 1 mM putrescine substrate). The following applies: read-out: Inhibitory Activity (IC50, nM) DAO. A digest of the protocol:
as §1

The target of another experiment is T4, recombinant human VAP-1 (Homo sapiens, UniProt Q16853).
T4 construct: purchased R&D systems
T4 sequence (Q16853 1-763): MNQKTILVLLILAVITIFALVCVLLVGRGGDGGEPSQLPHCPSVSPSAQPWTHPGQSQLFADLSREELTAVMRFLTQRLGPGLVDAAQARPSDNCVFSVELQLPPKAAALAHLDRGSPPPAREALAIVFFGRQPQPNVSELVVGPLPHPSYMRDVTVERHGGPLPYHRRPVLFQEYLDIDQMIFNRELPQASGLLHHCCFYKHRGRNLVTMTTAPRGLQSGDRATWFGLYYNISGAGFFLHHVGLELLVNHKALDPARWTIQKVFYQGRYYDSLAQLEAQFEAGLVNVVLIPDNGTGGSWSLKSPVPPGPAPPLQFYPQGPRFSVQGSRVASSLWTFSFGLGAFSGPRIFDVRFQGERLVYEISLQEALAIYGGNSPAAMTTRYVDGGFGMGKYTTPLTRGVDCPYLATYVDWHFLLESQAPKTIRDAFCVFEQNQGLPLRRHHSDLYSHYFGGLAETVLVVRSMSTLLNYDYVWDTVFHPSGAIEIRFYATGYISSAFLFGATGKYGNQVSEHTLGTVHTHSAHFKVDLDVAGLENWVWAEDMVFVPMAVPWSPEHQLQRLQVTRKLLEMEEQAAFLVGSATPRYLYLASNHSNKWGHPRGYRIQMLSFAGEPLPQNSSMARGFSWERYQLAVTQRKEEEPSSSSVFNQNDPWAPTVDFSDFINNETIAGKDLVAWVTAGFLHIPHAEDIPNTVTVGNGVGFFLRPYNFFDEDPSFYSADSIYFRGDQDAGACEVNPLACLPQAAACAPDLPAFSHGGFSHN
Nature of the experiment: Activity evaluation on recombinant human VAP-1 (Amplex Red/HRP-coupled hydrogen peroxide assay, benzylamine substrate). The note with it: read-out: Inhibitory Activity (IC50, nM) human VAP-1. In short, it runs like this:
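Hydrogen peroxide from benzylamine (1 mM) oxidation by human recombinant VAP-1 detected via HRP-coupled Amplex Red (200 uM) fluorescence, kinetic over 1–2 h. Enzyme and compound preincubated 30 min at 37 °C, pH 7.4 phosphate; 8-point dose response, signal-rate decrease versus DMSO control fitted to four-parameter logistic for IC50.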

[4] abbreviates: recombinant human VAP-1, 30 min preincubation at 37° C., 1 mM benzylamine.
The mark [5] stands for this setting: recombinant human VAP-1, benzylamine substrate.

Structures can show the parent of a compound that is named as a salt. Where two headings read alike, the source gives them in different places.

One may read the IC50 as the midpoint of a concentration-inhibition curve. Take `CS(=O)(=O)c1ccc(-c2cc(-n3cnn(CC(CN)=C(F)F)c3=O)ccn2)cc1` [Example 61, 2-[2-(aminomethyl)-3,3-difluoro-allyl]-4-[2-(4-methylsulfonylphenyl)-4-pyridyl]-1,2,4-triazol-3-one Trifluoroacetate]: the IC50 is greater than 100000 nM in experiment [1] (0.5 mM tyramine), 14000 nM in experiment [2] (1 mM benzylamine), 19 nM in experiment [3] (1 mM putrescine) and 0.7 nM at recombinant human VAP-1 (setting [4]).
Take `Cc1cc(C#Cc2cnc3c(c2)OCC(=O)N3)cnc1-n1cnn(CC(CN)=C(F)F)c1=O` [Example 248, 7-[2-[6-[1-[2-(aminomethyl)-3,3-difluoro-allyl]-5-oxo-1,2,4-triazol-4-yl]-5-methyl-3-pyridyl]ethynyl]-4H-pyrido[3,2-b][1,4]oxazin-3-one trifluoroacetate]: the IC50 in experiment [1] (0.5 mM tyramine substrate) was greater than 100000 nM; in experiment [2] (1 mM benzylamine substrate), 14000 nM; in experiment [3] (1 mM putrescine substrate), greater than 100000 nM; at recombinant human VAP-1 (setting [5]), 2.7 nM.
For the molecule `Cc1cc(-c2ccc3c(c2)OCO3)sc1Cn1cnn(CC(CN)=C(F)F)c1=O` [Example 158, 2-[2-(aminomethyl)-3,3-difluoro-allyl]-4-[[5-(1,3-benzodioxol-5-yl)-3-methyl-2-thienyl]methyl]-1,2,4-triazol-3-one Trifluoroacetate], the IC50 in experiment [1] (0.5 mM tyramine) was greater than 100000 nM; in experiment [2] (1 mM benzylamine), 3800 nM; in experiment [3] (1 mM putrescine) it was greater than 100000 nM; at recombinant human VAP-1 (setting [4]), 7 nM.
In the case of `Cc1cc(C#Cc2ccc(N3CCOCC3)nc2)cnc1-n1cnn(CC(CN)=C(F)F)c1=O` [Example 242, 2-[2-(aminomethyl)-3,3-difluoro-allyl]-4-[3-methyl-5-[2-(6-morpholino-3-pyridyl)ethynyl]-2-pyridyl]-1,2,4-triazol-3-one Trifluoroacetate], the IC50 in experiment [1] (0.5 mM tyramine substrate) is greater than 100000 nM; in experiment [2] (1 mM benzylamine substrate), 29000 nM; in experiment [3] (1 mM putrescine substrate), 4200 nM; on recombinant human VAP-1 (setting [5]), 1 nM.
Consider `CCn1cc(-c2ccc(-n3cnn(CC(CN)=C(F)F)c3=O)c(F)c2)cn1` [Example 37, 2-[2-(aminomethyl)-3,3-difluoro-allyl]-4-[4-(1-ethylpyrazol-4-yl)-2-fluoro-phenyl]-1,2,4-triazol-3-one Trifluoroacetate], for which the IC50 in experiment [1] (0.5 mM tyramine) was greater than 100000 nM; in experiment [2] (1 mM benzylamine), 880 nM; in experiment [3] (1 mM putrescine), 860 nM; on recombinant human VAP-1 (setting [4]), 0.5 nM.
Consider `Cc1cc(-c2cccc(-n3cnn(CC(CN)=C(F)F)c3=O)n2)cc2c1NC(=O)CC2` [Example 51, 6-[6-[1-[2-(aminomethyl)-3,3-difluoro-allyl]-5-oxo-1,2,4-triazol-4-yl]-2-pyridyl]-8-methyl-3,4-dihydro-1H-quinolin-2-one Trifluoroacetate], for which the concentration for half-maximal inhibition (IC50) was greater than 100000 nM in experiment [1] (0.5 mM tyramine), 28000 nM in experiment [2] (1 mM benzylamine), 520 nM in experiment [3] (1 mM putrescine) and 0.6 nM at recombinant human VAP-1 (setting [4]).
Turning to `Cc1cc(-c2ccc3c(c2)CN(C)C(=O)N3)cnc1-n1cnn(CC(CN)=C(F)F)c1=O` [Example 250, 6-[6-[1-[2-(aminomethyl)-3,3-difluoro-allyl]-5-oxo-1,2,4-triazol-4-yl]-5-methyl-3-pyridyl]-3-methyl-1,4-dihydroquinazolin-2-one Trifluoroacetate], the IC50 in experiment [1] (0.5 mM tyramine substrate) was greater than 100000 nM; in experiment [2] (1 mM benzylamine substrate), greater than 100000 nM; in experiment [3] (1 mM putrescine substrate), 4300 nM; on recombinant human VAP-1 (setting [5]), 0.2 nM.
For `CCn1cc(-c2ccc(-n3cnn(CC(CN)=C(F)F)c3=O)cn2)cn1` [Example 45, 2-[2-(aminomethyl)-3,3-difluoro-allyl]-4-[6-(1-ethylpyrazol-4-yl)-3-pyridyl]-1,2,4-triazol-3-one Trifluoroacetate], the IC50 in experiment [1] (0.5 mM tyramine) is greater than 100000 nM; in experiment [2] (1 mM benzylamine), 410 nM; in experiment [3] (1 mM putrescine), 200 nM; on recombinant human VAP-1 (setting [4]), 0.2 nM.
`NCC(Cn1ncn(Cc2ccc(-c3ccc(C(=O)N4CCOCC4)cc3)s2)c1=O)=C(F)F` [Example 109, 2-[2-(aminomethyl)-3,3-difluoro-allyl]-4-[[5-(4-morpholine-4-carbonyl)phenyl]-2-thienyl]methyl]-1,2,4-triazol-3-one trifluoroacetate]: the IC50 was greater than 100000 nM in experiment [1] (0.5 mM tyramine), greater than 100000 nM in experiment [2] (1 mM benzylamine), 84000 nM in experiment [3] (1 mM putrescine) and 1.4 nM on recombinant human VAP-1 (setting [4]).
`Cc1cc(-c2cc(C)c3c(c2)CCC(=O)N3)cnc1-n1cnn(CC(CN)=C(F)F)c1=O` [Example 73, 6-[6-[1-[2-(aminomethyl)-3,3-difluoro-allyl]-5-oxo-1,2,4-triazol-4-yl]-5-methyl-3-pyridyl]-8-methyl-3,4-dihydro-1H-quinolin-2-one Trifluoroacetate]: the IC50 was greater than 100000 nM in experiment [1] (0.5 mM tyramine), 7200 nM in experiment [2] (1 mM benzylamine), 6100 nM in experiment [3] (1 mM putrescine) and 0.3 nM at recombinant human VAP-1 (setting [4]).
For the molecule `Cc1cc(-n2cnn(CC(CN)=C(F)F)c2=O)cnc1-c1cc(C)c2c(c1)CCC(=O)N2` [Example 80, 6-[5-[1-[2-(aminomethyl)-3,3-difluoro-allyl]-5-oxo-1,2,4-triazol-4-yl]-3-methyl-2-pyridyl]-8-methyl-3,4-dihydro-1H-quinolin-2-one Trifluoroacetate], the IC50 in experiment [1] (0.5 mM tyramine) is greater than 100000 nM; in experiment [2] (1 mM benzylamine), 5300 nM; in experiment [3] (1 mM putrescine), 36 nM; on recombinant human VAP-1 (setting [4]), 0.4 nM.

The values are drawn from patent US11168073B2, “3,3-difluoroallylamines or salts thereof and pharmaceutical compositions comprising the same” (YUHAN CORPORATION, priority 2018, dated 2021).
